This assay is described as follows: Taste of blends with siamenoside I, findings summarised in the description. To be noted: for impact on bitterness in blends with siamenoside I: when present in certain amounts in blends with siamenoside I; for taste attributes when blended with siamenoside I vs siamenoside I only sweetened beverages: blended with siamenoside I in certain ratios; for perception of bitterness in blends: in certain blends.

With 11-oxomogroside I, the “impact on bitterness in blends with siamenoside I” value (from here on “impact on bitterness in blends”) is on record as “do not impact bitterness”. `C[C@H](CC[C@@H](O[C@@H]1O[C@H](CO[C@@H]2O[C@H](CO)[C@@H](O)[C@H](O)[C@H]2O)[C@@H](O)[C@H](O)[C@H]1O[C@@H]1O[C@H](CO)[C@@H](O)[C@H](O)[C@H]1O)C(C)(C)O)[C@H]1CC[C@@]2(C)C3CC=C4[C@@H](CC[C@H](O[C@@H]5O[C@H](CO)[C@@H](O[C@@H]6O[C@H](CO)[C@@H](O)[C@H](O)[C@H]6O)[C@H](O)[C@H]5O)C4(C)C)[C@]3(C)C(=O)C[C@]12C` (stereo partly drawn) [11-Oxoisomogroside V, 11- Oxoisomogroside V]: the “taste attributes when blended with siamenoside I vs siamenoside I only sweetened beverages” value is recorded as “less objectionable taste attributes”. For the compound `C[C@H](CC[C@@H](O[C@@H]1O[C@H](CO[C@@H]2O[C@H](CO)[C@@H](O)[C@H](O)[C@H]2O)[C@@H](O)[C@H](O)[C@H]1O)C(C)(C)O)[C@H]1CC[C@@]2(C)C3CC=C4[C@@H](CC[C@H](O)C4(C)C)[C@]3(C)C(=O)C[C@]12C` (stereo partly drawn) [11-Oxomogroside IIA1], the “perception of bitterness in blends” value is “increase the perception of bitterness”. Take `C[C@H](CC[C@@H](O)C(C)(C)O)[C@H]1CC[C@@]2(C)[C@@H]3CC=C4[C@@H](CC[C@H](O[C@@H]5O[C@H](CO[C@@H]6O[C@H](CO)[C@@H](O)[C@H](O)[C@H]6O)[C@@H](O)[C@H](O)[C@H]5O)C4(C)C)[C@]3(C)C(=O)C[C@]12C` [11-Oxomogroside IIA2]: the “perception of bitterness in blends” value is given as “increase the perception of bitterness”.

In the case of `C[C@H](CC[C@@H](O[C@@H]1O[C@H](CO)[C@@H](O)[C@H](O)[C@H]1O[C@@H]1O[C@H](CO)[C@@H](O)[C@H](O)[C@H]1O)C(C)(C)O)[C@H]1CC[C@@]2(C)[C@@H]3CC=C4[C@@H](CC[C@H](O)C4(C)C)[C@]3(C)C(=O)C[C@]12C` [11-Oxomogroside IIA], the “perception of bitterness in blends” value is “increase the perception of bitterness”. As to `C[C@H](CC[C@@H](O[C@@H]1O[C@H](CO)[C@@H](O)[C@H](O)[C@H]1O)C(C)(C)O)[C@H]1CC[C@@]2(C)C3CC=C4[C@@H](CC[C@H](O[C@@H]5O[C@H](CO)[C@@H](O)[C@H](O)[C@H]5O)C4(C)C)[C@]3(C)C(=O)C[C@]12C` (stereo partly drawn) [11-Oxomogroside IIE], the “perception of bitterness in blends” value is recorded as “increase the perception of bitterness”.

`C[C@H](CC[C@@H](O[C@@H]1O[C@H](CO[C@@H]2O[C@H](CO)[C@@H](O)[C@H](O)[C@H]2O)[C@@H](O)[C@H](O)[C@H]1O)C(C)(C)O)[C@H]1CC[C@@]2(C)C3CC=C4[C@@H](CC[C@H](O[C@@H]5O[C@H](CO)[C@@H](O)[C@H](O)[C@H]5O)C4(C)C)[C@]3(C)C(=O)C[C@]12C` (stereo partly drawn) [11-Oxomogroside III]: the “taste attributes when blended with siamenoside I vs siamenoside I only sweetened beverages” value was “less objectionable taste attributes” and the “perception of bitterness in blends” value was “increase the perception of bitterness”.

As to `C[C@H](CC[C@@H](O[C@@H]1O[C@H](CO[C@@H]2O[C@H](CO)[C@@H](O)[C@H](O)[C@H]2O)[C@@H](O)[C@H](O)[C@H]1O[C@@H]1O[C@H](CO)[C@@H](O)[C@H](O)[C@H]1O)C(C)(C)O)[C@H]1CC[C@@]2(C)C3CC=C4[C@@H](CC[C@H](O[C@@H]5O[C@H](CO[C@@H]6O[C@H](CO)[C@@H](O)[C@H](O)[C@H]6O)[C@@H](O)[C@H](O)[C@H]5O)C4(C)C)[C@]3(C)[C@H](O)C[C@]12C` (stereo partly drawn) [11-Oxomogroside V], the “taste attributes when blended with siamenoside I vs siamenoside I only sweetened beverages” value is “less objectionable taste attributes”. As for `C[C@H](CC[C@@H](O[C@@H]1O[C@H](CO[C@@H]2O[C@H](CO)[C@@H](O)[C@H](O)[C@H]2O)[C@@H](O)[C@H](O)[C@H]1O[C@@H]1O[C@H](CO)[C@@H](O)[C@H](O)[C@H]1O)C(C)(C)O)[C@H]1CC[C@@]2(C)C3CC=C4[C@@H](CC[C@H](O[C@@H]5O[C@H](CO)[C@@H](O[C@@H]6O[C@H](CO)[C@@H](O)[C@H](O)[C@H]6O)[C@H](O)[C@H]5O)C4(C)C)[C@]3(C)[C@H](O)C[C@]12C` (stereo partly drawn) [Isomogroside V], the “taste attributes when blended with siamenoside I vs siamenoside I only sweetened beverages” value was “less objectionable taste attributes”. For `C[C@H](CC[C@@H](O[C@@H]1O[C@H](CO)[C@@H](O)[C@H](O)[C@H]1O)C(C)(C)O)[C@H]1CC[C@@]2(C)C3CC=C4[C@@H](CC[C@H](O)C4(C)C)[C@]3(C)[C@H](O)C[C@]12C` (stereo partly drawn) [Mogroside IA], the “perception of bitterness in blends” value is recorded as “increase the perception of bitterness”. On to `C[C@H](CC[C@@H](O)C(C)(C)O)[C@H]1CC[C@@]2(C)C3CC=C4[C@@H](CC[C@H](O[C@@H]5O[C@H](CO)[C@@H](O)[C@H](O)[C@H]5O)C4(C)C)[C@]3(C)[C@H](O)C[C@]12C` (stereo partly drawn) [Mogroside IE], for which the “perception of bitterness in blends” value was “increase the perception of bitterness”.

As to `C[C@H](CC[C@@H](O[C@@H]1O[C@H](CO[C@@H]2O[C@H](CO)[C@@H](O)[C@H](O)[C@H]2O)[C@@H](O)[C@H](O)[C@H]1O)C(C)(C)O)[C@H]1CC[C@@]2(C)C3CC=C4[C@@H](CC[C@H](O)C4(C)C)[C@]3(C)[C@H](O)C[C@]12C` (stereo partly drawn) [Mogroside IIA1], the “perception of bitterness in blends” value was “increase the perception of bitterness”.

In the case of `C[C@H](CC[C@@H](O)C(C)(C)O)[C@H]1CC[C@@]2(C)[C@@H]3CC=C4[C@@H](CC[C@H](O[C@@H]5O[C@H](CO[C@@H]6O[C@H](CO)[C@@H](O)[C@H](O)[C@H]6O)[C@@H](O)[C@H](O)[C@H]5O)C4(C)C)[C@]3(C)[C@H](O)C[C@]12C` [Mogroside IIA2], the “perception of bitterness in blends” value is “increase the perception of bitterness”. Take `C[C@H](CC[C@@H](O[C@@H]1O[C@H](CO)[C@@H](O)[C@H](O)[C@H]1O[C@@H]1O[C@H](CO)[C@@H](O)[C@H](O)[C@H]1O)C(C)(C)O)[C@H]1CC[C@@]2(C)[C@@H]3CC=C4[C@@H](CC[C@H](O)C4(C)C)[C@]3(C)[C@H](O)C[C@]12C` [Mogroside IIA]: the “perception of bitterness in blends” value was “increase the perception of bitterness”. In the case of `C[C@H](CC[C@@H](O[C@@H]1O[C@H](CO)[C@@H](O)[C@H](O)[C@H]1O)C(C)(C)O)[C@H]1CC[C@@]2(C)C3CC=C4[C@@H](CC[C@H](O[C@@H]5O[C@H](CO)[C@@H](O)[C@H](O)[C@H]5O)C4(C)C)[C@]3(C)[C@H](O)C[C@]12C` (stereo partly drawn) [Mogroside IIE], the “taste attributes when blended with siamenoside I vs siamenoside I only sweetened beverages” value is “less objectionable taste attributes”. As for `C[C@H](CC[C@@H](O[C@@H]1O[C@H](CO)[C@@H](O)[C@H](O)[C@H]1O)C(C)(C)O)[C@H]1CC[C@@]2(C)C3CC=C4[C@@H](CC[C@H](O[C@@H]5O[C@H](CO[C@@H]6O[C@H](CO)[C@@H](O)[C@H](O)[C@H]6O)[C@@H](O)[C@H](O)[C@H]5O)C4(C)C)[C@]3(C)[C@H](O)C[C@]12C` (stereo partly drawn) [Mogroside IIIA2], the “perception of bitterness in blends” value was “increase the perception of bitterness”.

With `C[C@H](CC[C@@H](O[C@@H]1O[C@H](CO)[C@@H](O)[C@H](O)[C@H]1O[C@@H]1O[C@H](CO)[C@@H](O)[C@H](O)[C@H]1O)C(C)(C)O)[C@H]1CC[C@@]2(C)C3CC=C4[C@@H](CC[C@H](O[C@@H]5O[C@H](CO)[C@@H](O)[C@H](O)[C@H]5O)C4(C)C)[C@]3(C)[C@H](O)C[C@]12C` (stereo partly drawn) [Mogroside IIIE], the “impact on bitterness in blends” value was “do not impact bitterness”.

As for `C[C@H](CC[C@@H](O[C@@H]1O[C@H](CO[C@@H]2O[C@H](CO)[C@@H](O)[C@H](O)[C@H]2O)[C@@H](O)[C@H](O)[C@H]1O)C(C)(C)O)[C@H]1CC[C@@]2(C)C3CC=C4[C@@H](CC[C@H](O[C@@H]5O[C@H](CO)[C@@H](O)[C@H](O)[C@H]5O)C4(C)C)[C@]3(C)[C@H](O)C[C@]12C` (stereo partly drawn) [Mogroside III], the “taste attributes when blended with siamenoside I vs siamenoside I only sweetened beverages” value is listed as “less objectionable taste attributes”. Regarding `C[C@H](CC[C@@H](O[C@@H]1O[C@H](CO[C@@H]2O[C@H](CO)[C@@H](O)[C@H](O)[C@H]2O)[C@@H](O)[C@H](O)[C@H]1O)C(C)(C)O)[C@H]1CC[C@@]2(C)C3CC=C4[C@@H](CC[C@H](O[C@@H]5O[C@H](CO[C@@H]6O[C@H](CO)[C@@H](O)[C@H](O)[C@H]6O)[C@@H](O)[C@H](O)[C@H]5O)C4(C)C)[C@]3(C)[C@H](O)C[C@]12C` (stereo partly drawn) [Mogroside IVA], the “perception of bitterness in blends” value is “increase the perception of bitterness”. `C[C@H](CC[C@@H](O[C@@H]1O[C@H](CO[C@@H]2O[C@H](CO)[C@@H](O)[C@H](O)[C@H]2O)[C@@H](O)[C@H](O)[C@H]1O[C@@H]1O[C@H](CO)[C@@H](O)[C@H](O)[C@H]1O)C(C)(C)O)[C@H]1CC[C@@]2(C)[C@@H]3CC=C4[C@@H](CC[C@H](O[C@@H]5O[C@H](CO[C@@H]6O[C@H](CO)[C@@H](O)[C@H](O)[C@H]6O)[C@@H](O)[C@H](O)[C@H]5O)C4(C)C)[C@]3(C)[C@H](O)C[C@]12C` [Mogroside V]: the “impact on bitterness in blends” value is given as “do not impact bitterness”.

The values above are taken from patent publication US20260223897A1, “SIAMENOSIDE I SWEETENED BEVERAGES WITH MOGROSIDE BLENDS” (The Coca-Cola Company, priority 2023, published 2026).
